{
  "source": "paper PMC6895912",
  "about": "(Cancers, 2019)",
  "assay": "Host toxicity monitoring in the CWR22Rv1 xenograft study (body weight, health status)",
  "type": "in vivo, male NOD SCID mice",
  "method": "Following the in vitro studies and determination of the PK parameters, we then investigated the relative efficacy. Gal and the NGGAs in vivo using difficult-to-treat castration-resistant CWR22Rv1 xenografts. Given the enhanced IP and PO PK parameters of VNPP414 and VNPP433-3β over Gal, we decided to use lower doses of the new analogs compared to the previous Gal doses (200 mg/kg, IP/PO). Gal (200 mg/kg) served as positive control, while ENZ (25 mg/kg) administered PO was used as negative control. Male NOD SCID mice bearing CWR22Rv1 tumors were treated with vehicle, ENZ, Gal, VNPP414, and VNPP433-3β for 16 days as described in the Methods and Materials Section. […] In contrast, Gal and the NGGAs caused statistically significant tumor growth inhibition (TGI). […] It is notable that VNPP433-3β (at 7.5- and 15-fold lower molar doses) and VNPP414 (at 4-fold lower molar dose) are more efficacious than Gal. In general, no host toxicities were observed, as monitored by changes in animal body weight (Figure 7C). […]",
  "data": [
    {"smiles": "C[C@]12CC[C@H](n3ccnc3)CC1=CCC1C2CC[C@]2(C)C(n3cnc4ccccc43)=CCC12", "note": "(stereo partly drawn) [VNPP433-3β]", "values": [
      {"measurement": "mortality", "setting": "30 mg/kg PO once daily group, 5 mice", "result": "one mouse died on day 16"},
      {"measurement": "host toxicity, monitored by changes in animal body weight", "setting": "CWR22Rv1 tumor-bearing mice, PO, 16 days", "result": "no apparent host toxicity"}
    ]}
  ]
}
